Measured values published in patent US8945641B2, “Use of gum arabic for improving the growth and survival of bifidobacteria” (Compagnie Gervais Danone, priority 2006, dated 2015).

System: Bifidobacterium animalis ssp lactis I-2494
Experiment: Growth and survival of bifidobacteria in a drinking yogurt with yogurt ferments, acacia gum and/or cysteine, storage at 10° C.
Format: cell-based
Settings: acacia gum 0.8%
Text: A drinking yogurt (2.8% of proteins) is manufactured by reconstitution of milk powder, and supplemented with 0.8% (by weight) of acacia gum, as described in Example 1 above. This type of product is chosen for the trials since it is the one that poses the biggest problems in terms of maintaining the population of bifidobacteria during storage. The reconstituted milk, supplemented with acacia gum, is heat treated as described in Example 1 above, and homogenized (150-200 bar).
After cooling to 38-40° C., Streptococcus thermophilus and Lactobacillus delbrueckii ssp. Bulgaricus are added in an amount of 5×10^6 CFU/ml of Streptococcus thermophilus, 5×10^6 CFU/ml of Lactobacillus bulgaricus. Bifidobacterium animalis ssp lactis I-2494 is added in the form of a ferment for direct inoculation, such as those described in application FR 0606421 supplemented with cysteine or not. The supplemented ferment used corresponds to the addition of 1.92×10^7 CFU/ml of Bifidobacterium animalis and 6.9 mg/l of cysteine.
After inoculation, the fermentation is carried out at 38° C., and monitored using the CINAC® system (YSEBAERT) until the curd settling pH is obtained (4.3<pH<4.4).
The curd settling is obtained by drawing off and cooling between 10-20° C., and then stirring.
The product is then packaged in pots and then placed in a cold tunnel (4° C.).
The populations are then counted at 2 h of storage at 15° C., and then 2, 8 14, 28 and 37 days of storage at 10° C.
The same experiment was repeated with a product containing 2.7% of proteins, containing 0.8% of acacia gum, and inoculated with a ferment supplemented with cysteine, corresponding to the addition of 1.90×10^7 CFU/ml of bifidobacteria animalis and 7 mg/l of cysteine.

N[C@@H](CS)C(=O)O [Control Cysteine, cysteine]
Number of Bifidus at 2 h of storage (2 h of storage at 15° C., drinking yogurt 2.8% proteins, cysteine 6.9 mg/l where present): 2.1E+8 CFU/g
Number of Bifidus at D +2 (D+2, repeat, product 2.7% proteins, cysteine 7 mg/l where present): 1.05E+08 CFU/g
Number of Bifidus at D +2 (D+2 at 10° C., 2.8% proteins, cysteine 6.9 mg/l where present): 1.2E+8 CFU/g
Number of Bifidus at D +8 (D+8, repeat, 2.7% proteins, cysteine 7 mg/l where present): 9.00E+07 CFU/g
Number of Bifidus at D +8 (D+8 at 10° C., 2.8% proteins, cysteine 6.9 mg/l where present): 1.8E+8 CFU/g
Number of Bifidus at D +14 (D+14, repeat, 2.7% proteins, cysteine 7 mg/l where present): 7.00E+07 CFU/g
Number of Bifidus at D +14 (D+14 at 10° C., 2.8% proteins, cysteine 6.9 mg/l where present): 1.4E+8 CFU/g
Number of Bifidus at D +21 (D+21, repeat, 2.7% proteins, cysteine 7 mg/l where present): 4.00E+07 CFU/g
Number of Bifidus at D +28 (D+28, repeat, 2.7% proteins, cysteine 7 mg/l where present): 2.00E+07 CFU/g
Number of Bifidus at D +28 (D+28 at 10° C., 2.8% proteins, cysteine 6.9 mg/l where present): 8.8E+7 CFU/g
Number of Bifidus at D +35 (D+35, repeat, 2.7% proteins, cysteine 7 mg/l where present): 6.00E+06 CFU/g
Number of Bifidus at D +37 (D+37 at 10° C., 2.8% proteins, cysteine 6.9 mg/l where present): 7.8E+7 CFU/g
Number of Bifidus at D +52 (D+52, repeat, 2.7% proteins, cysteine 7 mg/l where present): 3.00E+06 CFU/g
